According to patent publication US8119563B2, “N-substituted azacycles” (FMC Corporation, priority 2003, dated 2012):

Tested on: tobacco budworm (Heliothis virescens [Fabricius])
Experiment: surface-treated diet test, insecticidal activity against tobacco budworm
Format: in vivo
Design: mortality: concentration or dose not given beside the values
Settings: 0.25 millimoles of candidate insecticide on the surface of the diet, second instar larvae, five-day exposure
Procedure, shortened: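 Second-instar larvae (~5 mg) were held five days at 25° C and 60% RH on artificial diet whose surface carried dried compound (0.25 millimolar standard rate; DMSO serial dilutions for rate series, six replicates each). Readouts: mortality and weight inhibition relative to DMSO-treated controls.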

[1] = compared to total number of insects infested
[2] = inhibition of insect weight relative to untreated controls

| SMILES | Percent Mortality [1] [%] | Percent Growth Inhibition [2] [%] | mortality (Heliothis virescens, 120 h, compared to total number of insects infested, read-out: Percent Mortality) [%] | pest or weed control at 0.25 mmol/well (Heliothis virescens, 120 h, inhibition of insect weight relative to untreated controls, read-out: Percent Growth Inhibition) [%] |
| --- | --- | --- | --- | --- |
| CON=C(Cl)c1ccc(C[N+]2([O-])CCC(O)(C(c3ccc(OC(F)(F)F)cc3)c3ccc(OC(F)(F)F)cc3)CC2)cc1 (centres unmarked) [Compound 355] | 100 | 100 |  |  |
| CCOC(=O)COc1ccc(C[N+]2([O-])CCC(O)(C(c3ccc(OC(F)(F)F)cc3)c3ccc(OC(F)(F)F)cc3)CC2)cc1 (centres unmarked) [Compound 357] | 0 | 100 |  |  |
| CC1(C)COC(c2ccc(C[N+]3([O-])CCC(O)(C(c4ccc(OC(F)(F)F)cc4)c4ccc(OC(F)(F)F)cc4)CC3)cc2)OC1 (centres unmarked) [Compound 358] | 100 | 100 |  |  |
| N#Cc1cccnc1Oc1ccc(C[N+]2([O-])CCC(O)(C(c3ccc(OC(F)(F)F)cc3)c3ccc(OC(F)(F)F)cc3)CC2)cc1 (centres unmarked) [Compound 359] | 100 | 100 |  |  |
| [O-][N+]1(Cc2ccc(C3OCCCO3)cc2)CCC(O)(C(c2ccc(OC(F)(F)F)cc2)c2ccc(OC(F)(F)F)cc2)CC1 (centres unmarked) [Compound 370] | 100 | 100 |  |  |
| [O-][N+]1(Cc2ccc(OCC=C(Cl)Cl)cc2)CCC(O)(C(c2ccc(OC(F)(F)F)cc2)c2ccc(OC(F)(F)F)cc2)CC1 (centres unmarked) [Compound 371] | 100 | 100 |  |  |
| [O-][N+]1(Cc2ccc(Oc3ccccc3Cl)cc2)CCC(O)(C(c2ccc(OC(F)(F)F)cc2)c2ccc(OC(F)(F)F)cc2)CC1 (centres unmarked) [Compound 375] | 100 | 100 |  |  |
| [O-][N+]1(Cc2ccc(C=NOCC(F)(F)F)cc2)CCC(O)(C(c2ccc(OC(F)(F)F)cc2)c2ccc(OC(F)(F)F)cc2)CC1 (centres unmarked) [Compound 378] | 100 | 100 |  |  |
| CC(C)Oc1ccc(C[N+]2([O-])CCC(O)(C(c3ccc(C(F)(F)F)cc3)c3ccc(C(F)(F)F)cc3)CC2)cc1 (centres unmarked) [Compound 380] | 100 | 100 |  |  |
| [O-][N+]1(Cc2ccc(OCc3ccccc3)cc2)CCC(O)(C(c2ccc(OC(F)(F)F)cc2)c2ccc(OC(F)(F)F)cc2)CC1 (centres unmarked) [Compound 381] | 100 | 100 |  |  |
| [O-][N+]1(Cc2ccc(OCC3CC3)cc2)CCC(O)(C(c2ccc(C(F)(F)F)cc2)c2ccc(C(F)(F)F)cc2)CC1 (centres unmarked) [Compound 383] | 100 | 100 |  |  |
| [O-][N+]1(Cc2ccc(Oc3ccc(Cl)nn3)cc2)CCC(O)(C(c2ccc(C(F)(F)F)cc2)c2ccc(C(F)(F)F)cc2)CC1 (centres unmarked) [Compound 384] | 100 | 100 |  |  |
| COCCOc1ccc(C[N+]2([O-])CCC(O)(C(c3ccc(OC(F)(F)F)cc3)c3ccc(OC(F)(F)F)cc3)CC2)cc1 (centres unmarked) [Compound 385, 4-{bis[4-(trifluoromethoxy)phenyl]methyl}-4-hydroxy-1-{[4-(2-methoxyethoxy)phenyl]methyl}piperidin-1-oxide] |  |  | 100 | 100 |
| CCCOC(=O)Nc1ccc(C[N+]2([O-])CCC(O)(C(c3ccc(OC(F)(F)F)cc3)c3ccc(OC(F)(F)F)cc3)CC2)cc1 (centres unmarked) [Compound 387] | 100 | 100 |  |  |
| [O-][N+]1(Cc2ccc(C=NOCCF)cc2)CCC(O)(C(c2ccc(OC(F)(F)F)cc2)c2ccc(OC(F)(F)F)cc2)CC1 (centres unmarked) [Compound 389] | 100 | 100 |  |  |
| CCCOC(=O)Nc1ccc(C[N+]2([O-])CCC(O)(C(c3ccc(C(F)(F)F)cc3)c3ccc(C(F)(F)F)cc3)CC2)cc1 (centres unmarked) [Compound 390] | 100 | 100 |  |  |
| [O-][N+]1(Cc2ccc(Oc3ccccn3)cc2)CCC(O)(C(c2ccc(Cl)cc2)c2ccc(OC(F)(F)F)cc2)CC1 (centres unmarked) [Compound 391] | 100 | 100 |  |  |
| [O-][N+]1(Cc2ccc(OCC3CC3)cc2)CCC(O)(C(c2ccc(OC(F)(F)F)cc2)c2ccc(OC(F)(F)F)cc2)CC1 (centres unmarked) [Compound 392] | 100 | 100 |  |  |
| [O-][N+]1(Cc2ccc(OCc3ccccc3)cc2)CCC(O)(C(c2ccc(C(F)(F)F)cc2)c2ccc(C(F)(F)F)cc2)CC1 (centres unmarked) [Compound 393] | 100 | 100 |  |  |
| [O-][N+]1(Cc2ccc(Oc3ncccc3Cl)cc2)CCC(O)(C(c2ccc(OC(F)(F)F)cc2)c2ccc(OC(F)(F)F)cc2)CC1 (centres unmarked) [Compound 399] | 100 | 100 |  |  |
| [O-][N+]1(Cc2ccc(Oc3ncccn3)cc2)CCC(O)(C(c2ccc(Cl)cc2)c2ccc(OC(F)(F)F)cc2)CC1 (centres unmarked) [Compound 402] | 100 | 100 |  |  |
| O=C(Nc1ccc(C[N+]2([O-])CCC(O)(C(c3ccc(OC(F)(F)F)cc3)c3ccc(OC(F)(F)F)cc3)CC2)cc1)OCC1CC1 (centres unmarked) [Compound 404] | 100 | 100 |  |  |

| SMILES | Percent Mortality [1] [%] | Percent Growth Inhibition [2] [%] | mortality (Heliothis virescens, 120 h, compared to total number of insects infested, read-out: Percent Mortality) [%] | pest or weed control at 0.25 mmol/well (Heliothis virescens, 120 h, inhibition of insect weight relative to untreated controls, read-out: Percent Growth Inhibition) [%] |
| --- | --- | --- | --- | --- |
| CCON=Cc1ccc(C[N+]2([O-])CCC(O)(C(c3ccc(Cl)cc3)c3ccc(OC(F)(F)F)cc3)CC2)cc1 (centres unmarked) [Compound 405] | 100 | 100 |  |  |
| CC(C)OC(=O)c1ccc(C[N+]2([O-])CCC(O)(C(c3ccc(C(F)(F)F)cc3)c3ccc(C(F)(F)F)cc3)CC2)cc1 (centres unmarked) [Compound 407] | 100 | 100 |  |  |
| [O-][N+]1(Cc2ccc(Oc3ncccn3)cc2)CCC(O)(C(c2ccc(OC(F)(F)C(F)C(F)(F)F)cc2)c2ccc(OC(F)(F)C(F)C(F)(F)F)cc2)CC1 (centres unmarked) [Compound 409] | 100 | 100 |  |  |
| NC(=O)CON=Cc1ccc(C[N+]2([O-])CCC(O)(C(c3ccc(OC(F)(F)F)cc3)c3ccc(OC(F)(F)F)cc3)CC2)cc1 (centres unmarked) [Compound 410] | 100 | 100 |  |  |
| [O-][N+]1(Cc2ccc(-c3ncccc3Cl)cc2)CCC(O)(C(c2ccc(OC(F)(F)F)cc2)c2ccc(OC(F)(F)F)cc2)CC1 (centres unmarked) [Compound 411] | 100 | 100 |  |  |
| [O-][N+]1(Cc2ccc(Oc3ccc(Cl)nn3)cc2)CCC(O)(C(c2ccc(OC(F)(F)F)cc2)c2ccc(OC(F)(F)F)cc2)CC1 (centres unmarked) [Compound 412] | 100 | 100 |  |  |
| Cc1ccc(Oc2ccc(C[N+]3([O-])CCC(O)(C(c4ccc(OC(F)(F)F)cc4)c4ccc(OC(F)(F)F)cc4)CC3)cc2)nn1 (centres unmarked) [Compound 413] | 100 | 100 |  |  |
| CCn1nnc(-c2ccc(CN3CCC(O)(C(O)(c4ccc(OC(F)(F)F)cc4)c4ccc(OC(F)(F)F)cc4)CC3)cc2)n1 [Compound 416] | 100 | 100 |  |  |
| CCON=Cc1ccc(CN2CCC(O)(C(O)(c3ccc(OC(F)(F)F)cc3)c3ccc(OC(F)(F)F)cc3)CC2)cc1 [Compound 417] | 100 | 100 |  |  |
| O=Cc1ccc(CN2CCC(O)(C(O)(c3ccc(OC(F)(F)F)cc3)c3ccc(OC(F)(F)F)cc3)CC2)cc1 [Compound 418] | 0 | 83 |  |  |
| CC(C)OC(=O)Nc1ccc(CN2CCC(O)(C(O)(c3ccc(OC(F)(F)F)cc3)c3ccc(OC(F)(F)F)cc3)CC2)cc1 [Compound 419] | 100 | 100 |  |  |
| [O-][N+]1(Cc2ccc(Oc3ccccn3)cc2)CCC(O)(C(O)(c2ccc(OC(F)(F)F)cc2)c2ccc(OC(F)(F)F)cc2)CC1 (centres unmarked) [Compound 421] | 100 | 100 |  |  |
| [O-][N+]1(Cc2ccc(Oc3ncccn3)cc2)CCC(O)(C(O)(c2ccc(OC(F)(F)F)cc2)c2ccc(OC(F)(F)F)cc2)CC1 (centres unmarked) [Compound 422] | 100 | 100 |  |  |
| CC(C)OC(=O)Nc1ccc(C[N+]2([O-])CCC(O)(C(O)(c3ccc(OC(F)(F)F)cc3)c3ccc(OC(F)(F)F)cc3)CC2)cc1 (centres unmarked) [Compound 423] | 100 | 100 |  |  |
| CCON=Cc1ccc(C[N+]2([O-])CCC(O)(C(O)(c3ccc(OC(F)(F)F)cc3)c3ccc(OC(F)(F)F)cc3)CC2)cc1 (centres unmarked) [Compound 424] | 100 | 100 |  |  |
| [O-][N+]1(Cc2ccc(Oc3ccc(Cl)nn3)cc2)CCC(O)(C(O)(c2ccc(OC(F)(F)F)cc2)c2ccc(OC(F)(F)F)cc2)CC1 (centres unmarked) [Compound 425] | 100 | 100 |  |  |
| CCn1nnc(-c2ccc(C[N+]3([O-])CCC(O)(C(O)(c4ccc(OC(F)(F)F)cc4)c4ccc(OC(F)(F)F)cc4)CC3)cc2)n1 (centres unmarked) [Compound 426] | 100 | 100 |  |  |
| [O-][N+]1(Cc2ccc(Oc3ccccn3)cc2)CCC(O)(C(F)(c2ccc(OC(F)(F)F)cc2)c2ccc(OC(F)(F)F)cc2)CC1 (centres unmarked) [Compound 430] | 100 | 100 |  |  |
| [O-][N+]1(Cc2ccc(Oc3ccccn3)cc2)CCC2(CC1)OC2(c1ccc(OC(F)(F)F)cc1)c1ccc(OC(F)(F)F)cc1 (centres unmarked) [Compound 431] | 100 | 100 |  |  |
| OC1(C(c2ccc(OC(F)(F)F)cc2)c2ccc(Cl)cc2Cl)CCN(Cc2ccc(Oc3ccccn3)cc2)CC1 (centres unmarked) [Compound 433] | 100 | 100 |  |  |
| OC1(C(c2ccccc2F)c2ccccc2F)CCN(Cc2ccc(Oc3ncccn3)cc2)CC1 [Compound 434] | 0 | 56 |  |  |
